Source: patent publication US6461822B2, “Methods of screening compounds for their ability to inhibit the production of inflammatory cytokines” (Pfizer Inc., priority 1998, dated 2002)

Columns and labels:
[1] = tested on: ATP-induced IL-1β production; assay: IL-1β production assay, ELISA method (ATP-induced IL-1β production by LPS-activated human monocytes); assay type: cell-based; conditions: for ATP-induced IL-1β production: human monocytes treated continuously with agent, FIG. 2A
Procedure: IL-1β production assay—ELISA method. Human monocytes were isolated from heparinized blood collected from normal volunteers. 100 ml of blood was diluted with 20 ml of RPMI 1640 medium that contained 5% FBS, 25 mM Hepes, pH 7.3, 2 mM glutamine, and 1% penicillin/streptomycin (Maintenance Medium). 30 ml of this suspension then was layered onto 15 ml of Lymphocyte Separation Medium (Organo Technicon) and centrifuged for 30 min at 1400 rpm at room temperature in a clinical centrifuge. The resulting mononuclear cell layer was harvested, diluted with Maintenance Medium, and the cells were pelleted by centrifugation. The recovered cells were washed with Maintenance Medium by repeated centrifugation. Each well of a 96 well plate was seeded with 2×10^5 mononuclear cells in 0.1 ml of Maintenance Medium; monocytes were allowed to adhere for 2 hr, then the medium (containing non-adherent cells) was replaced with 0.1 ml of fresh medium, and the monocytes were incubated overnight at 37° C. Monocytes were activated with 10 ng/ml of LPS (E. coli; serotype 055:B5) for 2 hr after which the medium was replaced with 0.1 ml of RPMI 1640, 20 mM Hepes, pH 6.9, 100 units/ml penicillin, 100 μg/ml streptomycin, 1% FBS (Release Medium) containing the indicated concentration of test agent; compounds were dissolved in DMSO and the final DMSO concentration in all wells was maintained at 0.2%. […] Cells subsequently were removed by centrifugation, media supernatants were harvested, and IL-1β levels within the media samples were determined with a specific ELISA kit (R and D Systems); each data point is the average of quadruplicate determinations.

[2] = tested on: soluble polypeptides of human monocytes (31, 32, 56 kDa); assay: Identification of DASU binding proteins: labeling of monocyte polypeptides by [14C]DASUs; conditions: [14C]labeled ligand 100 nM to 10 μm; FIG. 3
Procedure: Identification of DASU binding proteins. Human monocytes (isolated as described above and plated on 6 cm dishes) were treated with [^14C]Compound 1 in 3 ml of Release Medium (devoid of FBS) for 60 min after which cells were washed twice with 5 ml of Release Medium containing 5% FBS and suspended in 1 ml of 25 mM Hepes, pH 7, 150 mM NaCl, 1 μg/ml pepstatin, 1 μg/ml leupeptin, containing 0.5% saponin. Lysates were clarified by ultracentrifugation and the recovered soluble fractions were exchanged into 10 mM Tris, pH 8, containing 1 μg/ml each of pepstatin and leupeptin with the use of Centricon 30 concentration units. Final concentrates were lyophilized and then solubilized in SDS sample buffer.

[3] = tested on: porcine liver carboxylesterase; assay: in vitro carboxylesterase enzyme assay with p-nitrophenyl propionate; conditions: co-incubation with 100 μM
[4] = target: bacterial glutathione S-transferase (Schistosoma japonicum, UniProt P08515); assay type: binding; conditions: identical conditions; FIG. 7A
Description: (§1) Labeling rDBPs. […].

[5] = target: T1, rDBP-32 (Homo sapiens, UniProt O00299); assay: Labeling rDBPs with [14C]Compound 2 (SDS PAGE, phosphorimager); assay type: binding; conditions: FIG. 7A
T1 construct: cleaved with thrombin to yield full-length rDBP-31 and rDBP-32 polypeptides; GST (N, cleaved yes); made in house; host or cells: E. coli (as for DBP-31: BL21 [DE3], pGEX2T)
Description: as §1

Chain of bacterial glutathione S-transferase (P08515 2-218 limits assumed): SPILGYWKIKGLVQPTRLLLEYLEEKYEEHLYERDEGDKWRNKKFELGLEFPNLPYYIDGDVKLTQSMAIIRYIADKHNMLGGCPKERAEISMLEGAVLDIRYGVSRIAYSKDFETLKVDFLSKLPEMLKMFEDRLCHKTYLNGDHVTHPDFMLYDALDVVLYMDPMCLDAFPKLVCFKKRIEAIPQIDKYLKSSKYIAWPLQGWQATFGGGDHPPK

| Structure (SMILES) | IL-1 production of [14C]DASU-treated cells exposed to ATP ([1]; FIG. 3B) | ATP-induced IL-1β production [1] | radiolabeled polypeptides in soluble fraction of monocyte extracts [2] | melting point | IL-1β production after pretreatment and ATP in absence of compound ([1]; pretreated 60 min, then ATP without compound, FIG. 2B) | reduction of observed carboxylesterase enzymatic activity [3] | labeling of bacterial glutathione S-transferase [4] | labeling of rDBP-32 [5] |
| --- | --- | --- | --- | --- | --- | --- | --- | --- |
| CC(C)c1cc(Cl)cc(C(C)C)c1NC(=O)NS(=O)(=O)c1cc(C2CO2)ccc1F (centres unmarked) [Compound 1, 1-(4-Chloro-2,6-diisopropyl-phenyl)-3-[2-fluoro-5-oxiranylbenzene-sulfonyl]-urea] | dose-dependent inhibition | dose-dependent inhibition | several radiolabeled polypeptides were detected | 126 to 130 °C | – | – | – | – |
| O=C(Nc1c2c(cc3c1CCC3)CCC2)NS(=O)(=O)c1cc(C2CO2)ccc1F (centres unmarked) [Compound 2, 1-(1,2,3,5,6,7-Hexahydro-s-indacen-4-yl)-3-[2-fluoro-5-oxiranyl-benzenesulfonyl]-urea] | – | dose-dependent inhibition | several radiolabeled polypeptides were detected | – | remained suppressed | 67% | not labeled | labeled by [^14C]Compound 2 in a concentration dependent manner |
| O=[N+]([O-])c1ccc(OCC2CO2)cc1 (centres unmarked) [2-(4-nitro-phenoxymethyl)-oxirane, reference compound] | – | did not inhibit | – | – | – | – | – | – |
